Measured values as given in patent US20030219494A1, “Compositions and methods of using them” (priority 2002, published 2003).
Like-named read-outs stand apart in the source and are kept apart here.

Legend:
[1] = test system: mechanical allodynia in STZ-diabetic DA rats; experiment: von Frey antinociception (relief of mechanical allodynia) after single s.c. opioid in STZ-diabetic DA rats, standard chow or dietary L-arginine; conditions: for ED50: Rattus norvegicus, sc; for peak antinociception / time of decline of antinociception to baseline levels (<20% MPE) / time to peak antinociception: 3 wks post-STZ
Method: Deep and stable anaesthesia was induced with a mixture of ketamine (100 mg/kg, i.p.) and xylazine (16 mg/kg, i.p.) to facilitate insertion of a polyethylene cannula (previously filled with 0.1 ml of sterile saline) into the right common jugular vein. Jugular vein cannulae were tested for correct placement by the withdrawal of a small amount of blood. Diabetes was induced following an acute i.v. injection of streptozotocin (STZ) (85 mg/kg) in 0.1 M citrate buffer (pH 4.5) into the jugular vein.
Naïve non-diabetic rats (n=36) were used in the control experiments. Following STZ administration, benzylpenicillin (60 mg, s.c.) was administered to prevent infection and rats were monitored closely during surgical recovery. Rats were then housed singly or in pairs for period of 3 wks to 38 wks, depending upon the study cohort to which they belonged.
(§1) Multiple aliquots of these stock solutions were stored at −20° C. until required. […] Whilst under light anaesthesia with CO2/O2 (50:50%), rats received a single s.c. injection (100 μL) of one opioid or vehicle (saline) into the dorsal region of the base of the neck, using a 250 μL Hamilton syringe.
(§2) Mechanical allodynia, the distinguishing feature of diabetic neuropathic pain, was quantified using von Frey filaments. Rats were placed in a metabolic cage (20 cm×20 cm×20 cm) with a metal mesh floor and allowed to acclimatise for approximately 10 min. von Frey filaments were used to quantify the lowest mechanical threshold required for a brisk paw withdrawal reflex. The force was applied to the plantar surface of the left hindpaw and held until the filament buckled slightly. The absence of a response after 5 s prompted application of the next filament of increasing force. Filaments available for use included those that produced a buckling weight of 2, 4, 5, 6, 8, 10, 12, 14, 16, and 18 g. Filaments were calibrated daily before undertaking antinociceptive testing. […] Pre-drug (opioid or saline) responses were the mean of three readings taken ≈5 min apart. Assessment of von Frey filament responsiveness was determined at the following times post-opioid (or saline) administration: 15, 30, 45, 60, 90, 120 and 180 min.
(§3) The von Frey scores for individual rats were converted to the Percentage of the Maximum Possible Antinociceptive Effect (% MPE), according to the formula: [formula]
(§4) The mean (±SEM) percentage maximum AUC (% Max AUC) was calculated according to the following formula: [formula]
(§5) ED50 estimation was facilitated by the inclusion of theoretical maximum and minimum % Max AUC values.
This study comprised three groups of STZ-diabetic DA rats. […] Subsequent doses were chosen to facilitate construction of dose-response curves for the alleviation of tactile allodynia. Antinociception was quantified using calibrated von Frey filaments.
At 9 wks post-STZ administration, Group 1 STZ-diabetic rats received a dietary intervention of an L-arginine supplement (1 g per day) incorporated into rat chow, until the end of the 24 wk study period.
At 14 wks post-STZ administration, a dietary intervention comprising L-arginine supplementation (1 g per day in rat chow) was initiated which was continued for another 8 wks.
At 30 wks post-STZ administration, dietary L-arginine supplementation (1 g/day in rat chow) was initiated and continued for 8 wks.

[2] = test system: naïve control non-diabetic DA rats; experiment: von Frey antinociception after single s.c. opioid in control non-diabetic DA rats; assay type: in vivo, rat; conditions: for ED50: s.c.
Method: as §1, §2, §3, §4, §5
Weight-matched naïve control DA rats received dietary L-arginine supplementation (1 g per day in rat chow) for at least 1 wk prior to acute opioid administration and concomitant antinociceptive testing. Importantly, since diabetic rats eat twice as much as naïve control non-diabetic rats, the concentration of L-arginine in rat chow administered to control non-diabetic rats was doubled to maintain consistent L-arginine dosing between the STZ-diabetic rats and the control non-diabetic rats.

[3] = test system: tactile allodynia in STZ-diabetic DA rats; experiment: baseline von Frey paw withdrawal thresholds in STZ-diabetic rats given dietary L-arginine; assay type: in vivo, rat
Description: Filaments were calibrated daily before undertaking antinociceptive testing.

[4] = body weight of STZ-diabetic rats given dietary L-arginine; assay type: in vivo, rat
Description: Group 3 STZ-diabetic rats, (n=6, 224.7±2.9 g, mean±SEM) were the same rats used in Example 1 above. […] At 30 wks post-STZ administration, dietary L-arginine supplementation (1 g/day in rat chow) was initiated and continued for 8 wks.

[5] = body weight of control non-diabetic rats given dietary L-arginine; assay type: in vivo, rat; conditions: control non-diabetic rats after 1 wk dietary L-arginine
Description: Importantly, since diabetic rats eat twice as much as naïve control non-diabetic rats, the concentration of L-arginine in rat chow administered to control non-diabetic rats was doubled to maintain consistent L-arginine dosing between the STZ-diabetic rats and the control non-diabetic rats.

[6] = test system: rats with a chronic constriction injury (CCI) of the sciatic nerve; conditions: relief of mechanical allodynia; cited from earlier work
[7] = test system: naïve Dark Agouti rats; conditions: s.c., tail flick test; cited from earlier work
[8] = 24 wks post-STZ / full 24 wk study period, standard chow
[9] = 504 h, read-out: Mean (±SEM) ED50, STZ-diabetic rats 3 wks post-STZ, standard chow, s.c.
[10] = 1512 h, STZ-diabetic rats at 3 and 9 wks post-STZ, standard chow
[11] = 1512 h, read-out: Mean (±SEM) ED50, STZ-diabetic rats 9 wks post-STZ, standard chow (before L-arginine), s.c.
[12] = STZ-diabetic rats 12 wks post-STZ after 3 wks dietary L-arginine (1 g/day), s.c.
[13] = STZ-diabetic rats 24 wks post-STZ after 15 wks dietary L-arginine (1 g/day), s.c.
[14] = Rattus norvegicus, sc, control naïve non-diabetic rats, standard chow, von Frey % Max AUC, read-out: Mean (±SEM) ED50
[15] = 3 wks supplementation, 9 to 12 wks post-STZ
[16] = Group 1, 12 wks post-STZ (3 wks L-arginine)
[17] = Group 2, 18 wks post-STZ (4 wks L-arginine)
[18] = Group 2, 22 wks post-STZ (8 wks L-arginine)
[19] = Group 3, 34 wks post-STZ (4 wks L-arginine)
[20] = Group 3, 38 wks post-STZ (8 wks L-arginine)

## CN1CC[C@]23c4c5ccc(O)c4O[C@H]2[C@@H](O)C=C[C@H]3[C@H]1C5 [morphine]
[1]; [8]
  antinociceptive efficacy: remained completely abolished
[1]; [9]
  ED50: 6.1 mg/kg
[1]; [10]
  ED50: 6.1 ± 0.3 mg/kg
[1]; [11]
  ED50: 6.1 mg/kg
[1]; [12]
  ED50: 7 ± 0.5 mg/kg
[1]; [13]
  ED50: 5 ± 0.9 mg/kg
[1]; STZ-diabetic rats 12 wks post-STZ, standard chow, s.c.
  Mean (±SEM) ED50: No efficacy
[1]; STZ-diabetic rats 24 wks post-STZ, standard chow, s.c.
  Mean (±SEM) ED50: No efficacy
[1]; morphine 4 mg/kg s.c.
  peak antinociception: 70 % MPE
  time of decline of antinociception to baseline levels (<20% MPE): ≤ 90 min
  time to peak antinociception: ≤ 15 min
[1]; morphine 6.1 mg/kg s.c., 14 wks post-STZ, before L-arginine (Group 2)
  antinociceptive efficacy: completely abolished
[1]; morphine 6.1 mg/kg s.c., 16 wks post-STZ, 7 wks dietary L-arginine
  efficacy for the relief of mechanical allodynia: maintained
[1]; morphine 14.2 mg/kg s.c., 12 wks post-STZ
  antinociceptive efficacy: remained completely abolished
[1]; morphine 18 mg/kg s.c., 12 wks post-STZ
  antinociception: absence of antinociception
[1]; morphine 18 mg/kg s.c., STZ-diabetic rats 12 wks post-STZ (myoclonus, biting of cage)
  behavioural side effects: mild neuro-excitatory behaviours
[1]; morphine s.c., 24 wks post-STZ, 15 wks dietary L-arginine
  antinociceptive efficacy: maintained
[1]; morphine, STZ-diabetic rats, 11 wks dietary L-arginine (20 wks post-STZ)
  potency for relief of mechanical allodynia as percent of that in control non-diabetic rats: ≈ 90%
[2]; [14]
  ED50: 2.4 mg/kg
[2]; control non-diabetic rats, dietary L-arginine 1 g/day for 1 wk
  ED50: does not differ significantly

## N=C(N)NCCC[C@H](N)C(=O)O [L-arginine]
[1]; [15]
  effect of dietary L-arginine on morphine's antinociceptive efficacy: prevented the abolition
  effect of dietary L-arginine on oxycodone potency: prevented the 2-fold decrease
[1]; 4 wks supplementation (30 to 34 wks post-STZ), Group 3
  effect of dietary L-arginine on antinociceptive potency of morphine: partially restored
[1]; 4 wks supplementation, Group 2, 18 wks post-STZ
  effect of dietary L-arginine on antinociceptive efficacy of s.c. morphine (6.1 mg/kg): restored
[1]; started 14 and 30 wks post-STZ (groups 2 and 3), after as little as 4 wks
  effect of late-initiated dietary L-arginine on morphine efficacy: restored morphine efficacy
[3]; Group 1, 9 wks post-STZ (start of dietary L-arginine 1 g/day)
  paw withdrawal threshold: 6.8 (±0.3) g
[3]; [16]
  paw withdrawal threshold: 4.3 (±0.1) g
[3]; Group 1, 24 wks post-STZ (15 wks L-arginine)
  paw withdrawal threshold: 5.2 (±0.1) g
[3]; [17]
  paw withdrawal threshold: 4.9 (±0.2) g
[3]; [18]
  paw withdrawal threshold: 6.1 (±0.4) g
[3]; [19]
  paw withdrawal threshold: 3.9 (±0.2) g
[3]; [20]
  paw withdrawal threshold: 5.0 (±0.2) g
[4]; [16]
  mean (±SEM) body weight: 229.0 (±6.0) g
[4]; Group 1, 16 wks post-STZ (7 wks L-arginine)
  mean (±SEM) body weight: 218.0 (±7.2) g
[4]; Group 1, 20 wks post-STZ (11 wks L-arginine), n=6
  mean (±SEM) body weight: 253.4 (±9.9) g
[4]; Group 1, 24 wks post-STZ (15 wks L-arginine), n=25
  mean (±SEM) body weight: 234.5 (±5.1) g
[4]; [17]
  mean (±SEM) body weight: 203.2 (±6.4) g
[4]; [18]
  mean (±SEM) body weight: 220.9 (±11.6) g
[4]; [19]
  mean (±SEM) body weight: 207.8 (±10.7) g
[4]; [20]
  mean (±SEM) body weight: 221.7 (±11.7) g
[5]
  mean (±SEM) body weight: 236.3 g

## COc1ccc2c3c1O[C@H]1C(=O)CC[C@@]4(O)[C@@H](C2)N(C)CC[C@]314 [oxycodone]
[1]; 12 wks post-STZ, standard chow, s.c.
  antinociceptive efficacy/potency: maintained
[1]; [8]
  antinociceptive efficacy: maintained
[1]; [9]
  ED50: 2 mg/kg
[1]; [10]
  ED50: 2.1 ± 0.4 mg/kg
[1]; [11]
  ED50: 2.1 mg/kg
[1]; 2016 h, read-out: Mean (±SEM) ED50, STZ-diabetic rats 12 wks post-STZ, standard chow, s.c.
  ED50: 4.1 mg/kg
[1]; 4032 h, read-out: Mean (±SEM) ED50, STZ-diabetic rats 24 wks post-STZ, standard chow, s.c.
  ED50: 4.2 mg/kg
[1]; [12]
  ED50: 2 ± 0.3 mg/kg
[1]; [13]
  ED50: 1.8 ± 0.3 mg/kg
[1]; STZ-diabetic rats 3 wks post-STZ, s.c.
  potency relative to morphine for alleviation of mechanical allodynia: ≈ 3 times
[1]; STZ-diabetic rats, standard chow
  decrease in potency between 9 and 12 wks post-STZ: 2 fold
[1]; at 12 wks post-STZ, unchanged at 24 wks, standard chow
  decrease in antinociceptive potency relative to control non-diabetic rats: 4 fold
[1]; by 3 wks post-STZ
  rightward shift in the dose-response curve versus non-diabetic rats: ≈ 1.7 fold
[1]; by 9 wks post-STZ
  decrease in potency relative to weight-matched control non-diabetic rats: ≈ 2 fold
[1]; oxycodone 1.7 mg/kg s.c.
  peak antinociception: 90 % MPE
  time of decline of antinociception to baseline levels (<20% MPE): ≤ 120 min
  time to peak antinociception: ≤ 30 min
[1]; oxycodone 2.0 mg/kg s.c., 9 wks post-STZ, standard chow
  % MPE AUC: 108.7±13.2 % MPE-h
[1]; oxycodone 2.0 mg/kg s.c., 12 wks post-STZ, standard chow
  % MPE AUC: 37.0±1.1 % MPE-h
[1]; oxycodone 2.0 mg/kg s.c., 20 wks post-STZ, 11 wks dietary L-arginine (Group 1)
  % MPE AUC (±SEM): 160.3±7.6 % MPE-h
[1]; oxycodone 2.0 mg/kg s.c., 22 wks post-STZ, 8 wks dietary L-arginine (Group 2)
  % MPE AUC: 139.4±9.4 MPE-h
[1]; oxycodone 2.0 mg/kg s.c., 38 wks post-STZ, 8 wks dietary L-arginine (Group 3)
  % MPE AUC: 147.0±1.9 % MPE-h
[1]; oxycodone 4.0 mg/kg s.c., 24 wks post-STZ, standard chow
  % MPE AUC: 144.0±13.7 MPE-h
[1]; oxycodone, 11 wks dietary L-arginine (20 wks post-STZ)
  potency for relief of mechanical allodynia as percent of that in diabetic rats on standard chow at 9 wks post-STZ: ≈ 150%
[6]
  potency relative to morphine: ≈ 4 times
[7]
  potency relative to morphine: ≈ 3 times
[2]; Rattus norvegicus, sc, 168 h, control non-diabetic rats, dietary L-arginine 1 g/day for 1 wk, read-out: ED50
  ED50: 1 ± 0.1 mg/kg
[2]; [14]
  ED50: 1.2 mg/kg
[2]; printed: at 3 and 9 wks post-STZ, s.c. route, naïve non-diabetic rats
  potency relative to morphine: ≈ 2 fold
